The record followed here is ChEMBL document CHEMBL1138640, “Synthesis, radiolabeling, and preliminary biological evaluation of [3H]-1-[(S)-N,O-bis-(isoquinolinesulfonyl)-N-methyl-tyrosyl]-4-(o-tolyl)-piperazine, a potent antagonist radioligand for the P2X7 receptor” (Bioorg Med Chem Lett, 2004).

One assay relates to Cell line. Nature of the assay: inhibitory concentration against ATP-dependant calcium influx across plasma membrane of human monocytes. The format is functional, cell-based.
In assay [1] the target is T1, P2X purinoceptor 7 (Homo sapiens, UniProt Q99572).
T1 sequence (Q99572 whole entry): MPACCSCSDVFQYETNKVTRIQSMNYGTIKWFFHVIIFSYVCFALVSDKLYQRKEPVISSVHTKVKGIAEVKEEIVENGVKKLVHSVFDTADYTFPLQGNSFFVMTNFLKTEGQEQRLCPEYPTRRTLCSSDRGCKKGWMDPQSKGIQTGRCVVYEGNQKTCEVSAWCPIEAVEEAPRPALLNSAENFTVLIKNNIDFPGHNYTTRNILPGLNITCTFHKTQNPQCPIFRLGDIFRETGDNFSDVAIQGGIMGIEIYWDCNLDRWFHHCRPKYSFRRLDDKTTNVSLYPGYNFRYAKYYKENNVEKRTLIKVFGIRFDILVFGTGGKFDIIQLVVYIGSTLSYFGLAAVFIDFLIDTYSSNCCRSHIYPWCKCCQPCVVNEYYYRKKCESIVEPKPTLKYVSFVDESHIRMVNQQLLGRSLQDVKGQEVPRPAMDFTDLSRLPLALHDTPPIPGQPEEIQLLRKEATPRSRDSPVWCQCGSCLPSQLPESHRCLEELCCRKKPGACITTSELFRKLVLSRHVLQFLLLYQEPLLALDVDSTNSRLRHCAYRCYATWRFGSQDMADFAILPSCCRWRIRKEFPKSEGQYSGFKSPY
Nature of the assay: Equilibrium constant for P2X purinoceptor 7 expressed in HEK 293 cells at 1 uM. It is filed as cell-based, HEK293.

The target of assay [2] is T1, P2X purinoceptor 7. Nature of the assay: Maximum binding affinity towards P2X purinoceptor 7 expressed in HEK 293 cells. It is filed as cell-based, HEK293.
Assay [3] concerns the target T2, P2X purinoceptor 7 (Homo sapiens) (UniProt Q99572).
T2 sequence (whole entry): T1 sequence (Q99572 whole entry)
The settings on record: HEK293, 1 uM.
Description: Dissociation rate constant for P2X purinoceptor 7 expressed in HEK 293 cells at 1 uM

The target of assay [4] is T2, P2X purinoceptor 7 (Homo sapiens). The following applies: HEK293.
Description: Association rate constant towards P2X purinoceptor 7 expressed in HEK 293 cells

As to `CN([C@@H](Cc1ccc(OS(=O)(=O)c2cccc3cnccc23)cc1)C(=O)N1CCN(c2ccccc2)CC1)S(=O)(=O)c1cccc2cnccc12`, the IC50 in the assay on Cell line stood at 51 nM.

`Cc1ccccc1N1CCN(C(=O)[C@H](Cc2ccc(OS(=O)(=O)c3cccc4cnccc34)cc2)N(C)S(=O)(=O)c2cccc3cnccc23)CC1`: the concentration for half-maximal inhibition (IC50) in the assay on Cell line was determined as 15 nM. In addition, the dissociation constant Kd at P2X purinoceptor 7 [1] and at P2X purinoceptor 7 [2] was 3.57 nM throughout. The compound further showed a K-1 in assay [3] of 0.025 min⁻¹. In assay [4], this compound came in with a k obs of 0.000767 s⁻¹.
